From patent US20240279233A1, “MACROCYCLIC TAK1 INHIBITORS” (Aqilion AB, priority 2021, published 2024)
Converted amounts (≈) assume the structure as drawn. Like-named read-outs stand apart in the source and are kept apart here.

Columns and labels:
[1] = Solubility assay in phosphate buffer; conditions: phosphate buffer, pH 7.4, aqueous buffer, kinetic from dmso stock
Method: The aqueous solubility of selected example compounds was determined as follows; 6 μL of DMSO stock solution of the selected example was added to 594 μL phosphate buffer (100 mM, pH 7.4). The resulting mixture was equilibrated over night (20-24 h, Alligator Shaker, room temperature). The mixture was then filtered (Millex LH 0.45 μm) and the concentration/solubility was determined by LC-UV quantification.

[2] = target: human recombinant TAK1-TAB1 Kinase (TAK1 (1-303) and TAB1 (437-end)) (Homo sapiens (Human), UniProt O43318); experiment: TAK1 biochemical ADP-Glo kinase assay; conditions: MBP substrate
Chain of human recombinant TAK1-TAB1 Kinase (TAK1 (1-303) and TAB1 (437-end)) (O43318 other isoform, or with tags, fused parts or gaps): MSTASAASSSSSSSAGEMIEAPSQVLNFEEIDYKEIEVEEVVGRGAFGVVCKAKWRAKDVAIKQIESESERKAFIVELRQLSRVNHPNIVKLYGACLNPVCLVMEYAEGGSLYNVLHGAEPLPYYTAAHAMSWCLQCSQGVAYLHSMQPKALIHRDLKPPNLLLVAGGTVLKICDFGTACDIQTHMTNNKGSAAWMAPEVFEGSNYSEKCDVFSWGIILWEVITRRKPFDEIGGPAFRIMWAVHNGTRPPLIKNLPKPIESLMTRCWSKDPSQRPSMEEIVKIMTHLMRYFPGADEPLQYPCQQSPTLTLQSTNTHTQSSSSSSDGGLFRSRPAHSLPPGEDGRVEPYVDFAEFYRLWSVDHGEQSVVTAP
Outline: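 Inhibition of human recombinant TAK1-TAB1 kinase was measured with a Promega ADP-Glo luminescence assay in 384-well plates. Compounds in 5% DMSO were pre-incubated 10 min with 2 μl TAK1-TAB1 (7.5 ng/μl) in buffer of Tris pH 7.5, MgCl2, DTT and BSA. MBP substrate and ATP were then added for 1 hour at room temperature. ADP-Glo reagent and kinase detection substrate followed, luminescence was read on an Envision, and IC50 came from non-linear regression.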

[3] = Solubility (μM), phosphate buffer 100 mM, pH 7.4, room temperature, 20-24 h, LC-UV
[4] = 10 μM ATP, read-out: TAK1 Mean IC50 (nM) @ 10 μM ATP
[5] = 1 mM ATP, read-out: TAK1 Mean IC50 (nM) @ 1 mM ATP

SMILES | solubility [1, 3] | IC50 [2, 4] | IC50 [2, 5] | solubility [1]
CC1CCCCNC(=O)c2cccc(c2)C(=O)Nc2nc3cccc(C(=O)N(C)C)c3n21 (single isomer, unassigned) [Example 32, (E)-N,N,11-trimethyl-3,5-dioxo-1^2,1^3-dihydro-1^1H-2,6-diaza-1(2,1)-benzo[d]imidazola-4(1,3)-benzenacycloundecaphane-1^7-carboxamide] | 95 µM (≈ 41.2 µg/mL) | 3 nM | 14 nM | 
C[C@H]1CCCCNC(=O)c2cccc(c2)C(=O)Nc2nc3ccc(Cl)c(C(=O)N(C)C)c3n21 (single isomer, unassigned) [Example 54] | 9 µM (≈ 4.21 µg/mL) | 8 nM | 25 nM | 
CC1CCCCNC(=O)c2cccc(c2)C(=O)/N=C2\Nc3cccc(C(=O)N(C)CCF)c3N21 (single isomer, unassigned) [Example 70, (E)-N-(2-fluoroethyl)-N,11-dimethyl-3,5-dioxo-1^2,1^3-dihydro-1^1H-2,6-diaza-1(2,1)-benzo[d]imidazola-4(1,3)-benzenacycloundecaphane-1^7-carboxamide] | 90 µM (≈ 41.9 µg/mL) | 5 nM | 6 nM | 
CC1CCCCNC(=O)c2cccc(c2)C(=O)/N=C2\Nc3cccc(C(=O)N4CCOC[C@H]4C)c3N21 (single isomer, unassigned) [Example 76] | 89 µM (≈ 43.6 µg/mL) | 18 nM |  | 
CC1CCCCNC(=O)c2cccc(c2)C(=O)/N=C2\Nc3cccc(C(=O)N4CCOC[C@@H]4C)c3N21 (single isomer, unassigned) [Example 78] | 86 µM (≈ 42.1 µg/mL) | 8 nM |  | 
CC1CCCCNC(=O)c2cccc(c2)C(=O)/N=C2\Nc3cccc(C(=O)N4CC5(CCO5)C4)c3N21 (single isomer, unassigned) [Example 79, (E)-11-methyl-1^7-(1-oxa-6-azaspiro[3.3]heptane-6-carbonyl)-1^2,1^3-dihydro-1^1H-2,6-diaza-1(2,1)-benzo[d]imidazola-4(1,3)-benzenacycloundecaphane-3,5-dione] |  | 6 nM | 7 nM | 90 µM (≈ 43.9 µg/mL)
CC1CCCCNC(=O)c2cccc(c2)C(=O)/N=C2\Nc3cccc(C(=O)N4CC[C@H](F)C4)c3N21 (single isomer, unassigned) [Example 89] | 88 µM (≈ 42 µg/mL) | 6 nM |  | 
CC1CCCCNC(=O)c2cccc(c2)C(=O)/N=C2\Nc3cccc(-c4nccn4C)c3N21 (single isomer, unassigned) [Example 136, (E)-11-methyl-1^7-(1-methyl-1H-imidazol-2-yl)-1^2,1^3-dihydro-1^1H-2,6-diaza-1(2,1)-benzo[d]imidazola-4(1,3)-benzenacycloundecaphane-3,5-dione] | 11 µM (≈ 4.87 µg/mL) | 4 nM |  | 
O=C1NCCCCCCn2c(nc3ccccc32)NC(=O)c2cccc1c2 [Example 1, 1^1H-2,6-diaza-1(2,1)-benzo[d]imidazola-4(1,3)-benzenacyclododecaphane-3,5-dione] | 1.2 µM (≈ 0.435 µg/mL) | 27 nM |  | 
CC1CCCCNC(=O)c2cccc(c2)C(=O)Nc2nc3cccc(C(=O)N4CCN(C)CC4)c3n21 (stereo not shown) [Example 8, 11-methyl-1^7-(4-methylpiperazine-1-carbonyl)-1^1H-2,6-diaza-1(2,1)-benzo[d]imidazola-4(1,3)-benzenacycloundecaphane-3,5-dione] | 92.7 µM (≈ 45.3 µg/mL) | 5 nM |  | 
CN1CCN(C(=O)c2cccc3nc4n(c23)CCCCCNC(=O)c2cccc(c2)C(=O)N4)CC1 [Example 10, 1^7-(4-methylpiperazine-1-carbonyl)-1^1H-2,6-diaza-1(2,1)-benzo[d]imidazola-4(1,3)-benzenacycloundecaphane-3,5-dione] | 28 µM (≈ 13.3 µg/mL) | 11 nM |  | 
CN1CCN(C(=O)c2ccc3c(c2)nc2n3CCCCCNC(=O)c3cccc(c3)C(=O)N2)CC1 [Example 11, 1^5-(4-methylpiperazine-1-carbonyl)-1^1H-2,6-diaza-1(2,1)-benzo[d]imidazola-4(1,3)-benzenacycloundecaphane-3,5-dione] | 4.8 µM (≈ 2.28 µg/mL) | 1 nM |  | 
O=C1NCCCCCn2c(nc3cc(C(=O)N4CCN(C5COC5)CC4)ccc32)NC(=O)c2cccc1c2 [Example 12, 1^5-(4-(oxetan-3-yl)piperazine-1-carbonyl)-1^1H-2,6-diaza-1(2,1)-benzo[d]imidazola-4(1,3)-benzenacycloundecaphane-3,5-dione] | 31.1 µM (≈ 16.1 µg/mL) | 1 nM |  | 
[2H]C([2H])([2H])N(C(=O)c1cccc2c1N1/C(=N/C(=O)c3cccc(c3)C(=O)NCCCC[C@@H]1C)N2)C([2H])([2H])[2H] [Example 118, (S,E)-11-methyl-N,N-bis(methyl-d3)-3,5-dioxo-1^2,1^3-dihydro-1^1H-2,6-diaza-1(2,1)-benzo[d]imidazola-4(1,3)-benzenacycloundecaphane-1^7-carboxamide] |  |  | 15 nM | 
C[C@H]1CCCCNC(=O)c2cccc(c2)C(=O)/N=C2\Nc3ccnc(N4CCCC4=O)c3N21 [Example 119, (S,E)-11-methyl-1^4-(2-oxopyrrolidin-1-yl)-1^2,1^3-dihydro-1^1H-2,6-diaza-1(2,3)-imidazo[4,5-c]pyridina-4(1,3)-benzenacycloundecaphane-3,5-dione] |  | 7 nM | 22 nM | 
C[C@H]1CCCCNC(=O)c2cccc(c2)C(=O)/N=C2\Nc3ccnc(N4CCN(C5CC5)C4=O)c3N21 [Example 122, (S,E)-1^4-(3-cyclopropyl-2-oxoimidazolidin-1-yl)-11-methyl-1^2,1^3-dihydro-1^1H-2,6-diaza-1(2,3)-imidazo[4,5-c]pyridina-4(1,3)-benzenacycloundecaphane-3,5-dione] |  | 9 nM | 57 nM | 
C[C@H]1CCCCNC(=O)c2cccc(c2)C(=O)/N=C2\Nc3cc(CN4CCN(C)CC4)cc(C(=O)N(C)C)c3N21 [Example 124, (S,E)-N,N,11-trimethyl-1^5-((4-methylpiperazin-1-yl)methyl)-3,5-dioxo-1^2,1^3-dihydro-1^1H-2,6-diaza-1(2,1)-benzo[d]imidazola-4(1,3)-benzenacycloundecaphane-1^7-carboxamide] |  | 7 nM | 9 nM | 
C[C@H]1CCCCNC(=O)c2cccc(c2)C(=O)/N=C2\Nc3cc(CN4CCOCC4)cc(C(=O)N(C)C)c3N21 [Example 125, (S,E)-N,N,11-trimethyl-1^5-(morpholinomethyl)-3,5-dioxo-1^2,1^3-dihydro-1^1H-2,6-diaza-1(2,1)-benzo[d]imidazola-4(1,3)-benzenacycloundecaphane-1^7-carboxamide] |  | 5 nM | 7 nM | 
C[C@H]1CCCCNC(=O)c2cccc(c2)C(=O)/N=C2\Nc3ccnc(C(=O)N(C)C)c3N21 [Example 128, (S,E)-N,N,11-trimethyl-3,5-dioxo-1^2,1^3-dihydro-1^1H-2,6-diaza-1(2,3)-imidazo[4,5-c]pyridina-4(1,3)-benzenacycloundecaphane-1^4-carboxamide] |  | 7 nM |  | 
C[C@H]1CCCCNC(=O)c2cccc(c2)C(=O)/N=C2\Nc3cccc(-c4cn(C5COC5)nn4)c3N21 [Example 129, (S,E)-11-methyl-1^7-(1-(oxetan-3-yl)-1H-1,2,3-triazol-4-yl)-1^2,1^3-dihydro-1^1H-2,6-diaza-1(2,1)-benzo[d]imidazola-4(1,3)-benzenacycloundecaphane-3,5-dione] |  | 6 nM | 6 nM | 
C[C@H]1CCCCNC(=O)c2cccc(c2)C(=O)/N=C2\Nc3ccnc(N4CCN(C)C4=O)c3N21 [Example 130, (S,E)-11-methyl-1^4-(3-methyl-2-oxoimidazolidin-1-yl)-1^2,1^3-dihydro-1^1H-2,6-diaza-1(2,3)-imidazo[4,5-c]pyridina-4(1,3)-benzenacycloundecaphane-3,5-dione] |  | 7 nM | 27 nM | 
CN(C)C(=O)c1cccc2c1N1/C(=N/C(=O)c3cccc(c3)C(=O)NCCCCC13CC3)N2 [Example 131, (E)-N,N-dimethyl-3′,5′-dioxospiro[cyclopropane-1,11′-2,6-diaza-1(2,1)-benzo[d]imidazola-4(1,3)-benzenacycloundecaphane]-7′-carboxamide] |  | 5 nM | 13 nM | 
Cc1nnc(-c2cccc3c2N2/C(=N/C(=O)c4cccc(c4)C(=O)NCCCC[C@@H]2C)N3)n1C(C)C [Example 134, (S,E)-1^7-(4-isopropyl-5-methyl-4H-1,2,4-triazol-3-yl)-11-methyl-1^2,1^3-dihydro-1^1H-2,6-diaza-1(2,1)-benzo[d]imidazola-4(1,3)-benzenacycloundecaphane-3,5-dione] |  | 10 nM | 12 nM | 
C[C@H]1CCCCNC(=O)c2cccc(c2)C(=O)/N=C2\Nc3cncc(C(=O)N(C)C)c3N21 [Example 145, (S,E)-N,N,11-trimethyl-3,5-dioxo-1^2,1^3-dihydro-1^1H-2,6-diaza-1(2,1)-imidazo[4,5-c]pyridina-4(1,3)-benzenacycloundecaphane-1^7-carboxamide] |  | 10 nM |  | 
C[C@H]1CCCCNC(=O)c2cccc(c2)C(=O)/N=C2\Nc3cccc(N4CCC(F)C4=O)c3N21 (stereo partly drawn) [Example 146, (11S,E)-1^7-(3-fluoro-2-oxopyrrolidin-1-yl)-11-methyl-1^2,1^3-dihydro-1^1H-2,6-diaza-1(2,1)-benzo[d]imidazola-4(1,3)-benzenacycloundecaphane-3,5-dione] |  | 5 nM | 9 nM | 
Cc1noc(-c2cccc3c2N2/C(=N/C(=O)c4cccc(c4)C(=O)NCCCC[C@@H]2C)N3)n1 [Example 147, (S,E)-11-methyl-1^7-(3-methyl-1,2,4-oxadiazol-5-yl)-1^2,1^3-dihydro-1^1H-2,6-diaza-1(2,1)-benzo[d]imidazola-4(1,3)-benzenacycloundecaphane-3,5-dione] |  | 5 nM |  | 
